Experimental data as given in patent publication US6375926B1, “Labelled elastase inhibitors” (Amersham International PLC, priority 1996, dated 2002).
Like-named read-outs stand apart in the source and are kept apart here.

Key:
[1] = target: T1, HLE (human leucocyte elastase) (Homo sapiens, UniProt P08246); test: Measurement of HLE inhibition potency (kinact/Ki); type: biochemical; set-up: Potency (M/sec), kinact/Ki: unit not given here
T1 sequence (P08246 30-267): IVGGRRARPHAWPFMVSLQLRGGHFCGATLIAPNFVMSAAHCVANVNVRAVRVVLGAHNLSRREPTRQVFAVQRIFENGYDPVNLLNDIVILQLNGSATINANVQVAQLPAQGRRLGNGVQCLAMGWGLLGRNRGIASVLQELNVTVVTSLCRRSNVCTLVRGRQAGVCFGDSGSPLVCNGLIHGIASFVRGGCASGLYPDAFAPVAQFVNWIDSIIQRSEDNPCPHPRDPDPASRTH
Method: Inhibitor potency against HLE is described by the parameter kinact/Ki as previously reported [Knight et al., Biochem., 8160-8170, (1992)]. Lyophilised enzyme was reconstituted with TrisHCl buffer, 100 mM, 0.5M NaCl at 0.05 units/ml (approximately nanomolar concentration) in a final reaction volume of 1 ml to which was added methoxysucc-ala-ala-pro-val-pNA substrate (1 mM) and the elastase inhibitor dissolved in DMSO. The reaction was monitored by detecting the change of absorbance at 410 nm (hydrolysis of the substrate releasing p-nitroaniline) over a timescale of 25 minutes. Values of kinact/Ki were estimated according to the Knight et al method.

[2] = test system: isolated human white cells (granulocytes; monocytes + lymphocytes); test: In vitro cell uptake in isolated human white cells; type: cell-based; details: for selectivity for granulocytes over a mixture of monocytes/lymphocytes: approximately equivalent numbers of monocytes/lymphocytes and granulocytes present; for % uptake in Gran. (granulocytes), WHITE CELLS / % uptake in Mon. (monocytes + lymphocytes), WHITE CELLS: isolated human white cells, 30 minutes at 37° C., radiolabelled compound
Method: Fresh blood (30-120 ml) was anticoagulated with 1.5% ACD solution and sedimented by addition of 2 ml Hespan per 10 ml blood for 90 minutes at room temperature. The leucocyte rich platelet rich plasma supernatant was removed and centrifuged at 150 g for 5 minutes, yielding a leucocyte rich pellet and platelet rich plasma (PRP). The PRP was centrifuged at 4000 g to pellet the platelets leaving a cell free plasma (CFP). The leucocyte pellet was resuspended in a 50:50 mixture of HBSS and CFP and incubated with the radioactive compound for 30 minutes at 37° C. Free radioactive material was then removed from the cells by addition of an excess of HBSS:CFP and centrifugation of the leucocytes at 150 g for 7 minutes. The supernatant and cell pellet were taken for radioactive counting for calculation of percentage cell uptake. The distribution of radioactivity within the cell pellet was assessed by separation of the cell types using Percoll density gradient centrifugation (38%, 55% and 73% Percoll in HBSS step gradients). The residual plasma and free activity was recovered from the top of the gradient, the mononuclear cells (lymphocytes and monocytes) from the interface between 38% and 55%, and the granulocytes were recovered from the interface between 55% and 73% Percoll.

[3] = test system: mixed human red/white cells (granulocytes, monocytes + lymphocytes, erythrocytes); test: In vitro cell uptake in mixed human red/white cells; type: cell-based; details: radiolabelled compound
Method: The radioactive compound was also incubated with an isolated leucocyte preparation to which an erythrocyte fraction had been added back. The packed erythrocytes obtained after blood sedimentation were washed twice with HBSS and then resuspended in their original blood volume with HBSS. Leucocytes obtained from 30 ml blood were resuspended in 0.5 ml erythrocyte suspension and 0.5 ml CFP. The cell suspension was then incubated with compound as above. Analysis of the distribution of activity in the cell pellet in the presence of red blood cells was carried out using Ficoll-Hypaque discontinuous density gradients (densities 1.04, 1.077 and 1.119 g/ml Histopaque steps).

[4] = test system: human whole blood (granulocytes, monocytes + lymphocytes, erythrocytes); test: In vitro cell uptake in human whole blood; type: cell-based; details: 37° C. for 1 hour, radiolabelled compound
Method: The radioactive compound was added to 1 ml whole blood anticoagulated with ACD and incubated at 37° C. for 1 hour. The blood was diluted with HBSS and the cellular component separated by centrifugation. Distribution of activity within the cellular pellet was assessed by separation of cell fractions on Ficoll-Hypaque gradients as above.

[5] = test system: E. coli infected rats (experimental abscess); test: In vivo biodistribution in rats bearing experimental abscesses, direct intravenous injection; set-up: species or system male Wistar rats; details: for uptake in the infected region compared with the ^99mTc-rbc control: ^123I-labelled, rat model of inflammation/infection; for Relative conc. In infected area / Infected/normal / Infected/blood: directly injected i.v.; for Relative conc. In infected area: % injected dose in a % body weight; for Infected/normal: ratio of % id/g infected area to contralateral thigh; for Infected/blood: ratio of %/g infected area to blood
Method: (§1) The model: into the right gracilis (thigh) muscle of male Wistar rats (250-325 g) were injected 1 ml/kg of an E. coli suspension containing >> 5×10^8/ml organisms.
(§2) Validation: the model was validated for use in the development of diagnostic imaging agents of infection/inflammation by the intravenous injection of ^99mTc-HMPAO ex-vivo labelled human wbc or ^67Ga-citrate when the abscesses were 24 hours old. Animals were dissected between 4 and 24 hours after injection. ^99mTc-labelled red blood cells were used as a negative control.
The animals were sacrificed at either 4 or 24 hours post injection and relevant tissues dissected.

[6] = test system: E. coli infected rats (experimental abscess); test: In vivo biodistribution of ex vivo labelled human leucocytes in E. coli infected rats; set-up: species or system male Wistar rats; details: ex vivo labelled human leucocytes injected i.v.
Method: as §1, §2
Screening of Ex vivo labelled human leucocytes in E. coli infected rats: A mixed population of human leucocytes was incubated with elastase inhibitor for 30 minutes at 37° C. The cells were then spun down and resuspended in a known volume of rat plasma for intravenous injection into rats bearing a 24 hour old abscess. Animals were dissected at 4 and 24 hours post injection.

[7] = In vivo stability of iodinated HLE inhibitors (thyroid uptake); set-up: species or system male Wistar rats; details: i.v. injection
Method: The in vivo stability of radioiodinated HLE inhibitors was monitored by determination of the percentage uptake in the thyroid as a function of time after administration. Thus radioiodinated compounds and ^123I free iodide were injected into male Wistar rats. The percentage of injected dose distributing to the thyroid was calculated by dissection at 4 and 24 hours post injection and counting.

[8] = measured for non-radioactive iodine-labelled compounds and unlabelled chelate conjugates, read-out: Potency (M/sec), kinact/Ki

Row | kinact/KI [1, 8] | % dose in Thyroid ([7]; 4 hours) | % dose in Thyroid ([7]; 24 hours) | Structure (SMILES) | selectivity for granulocytes over a mixture of monocytes/lymphocytes [2] | % uptake in Gran. (granulocytes), WHITE CELLS [2] | % uptake in Mon. (monocytes + lymphocytes), WHITE CELLS [2] | % uptake in Eryth. (erythrocytes), WHITE AND RED CELLS [3] | % uptake in Gran. (granulocytes), WHITE AND RED CELLS [3] | % uptake in Mon. (monocytes + lymphocytes), WHITE AND RED CELLS [3] | % uptake in Eryth. (erythrocytes), WHOLE BLOOD [4] | % uptake in Gran. (granulocytes), WHOLE BLOOD [4] | % uptake in Mon. (monocytes + lymphocytes), WHOLE BLOOD [4] | uptake in the infected region compared with the ^99mTc-rbc control [5] | Relative conc. In infected area ([5]; 4 hrs post injection) | Infected/normal ([5]; 4 hrs post injection) | Infected/blood ([5]; 4 hrs post injection) | Relative conc. In infected area ([5]; 24 hrs post injection) | Infected/normal ([5]; 24 hrs post injection) | Infected/blood ([5]; 24 hrs post injection) | other results
1 | 32000 M⁻¹ s⁻¹ | 0.1 % dose | 0.9 % dose | CCC1(CC)C(=O)N(C(=O)NCc2ccc(I)cc2)C1Oc1ccc(C(=O)N2CCN(C)CC2)cc1 (racemic) [Compound 4, 4-[4-[[(4-Methyl)piperazin-1-yl]carbonyl]phenoxy]-1-[(4-iodo)benzylaminocarbonyl]-3,3-diethyl-2-azetidinone] | some degree of selectivity for granulocytes | 25.7% | 2.0% | 14.2% | 14.4% | 3.4% | 6.5% | 5.0% | 3.9% | significantly better uptake in the infected region | 0.51 | 1.3 | 0.62 | 0.12 | 1.3 | 0.51 | kinact/KI ([1]; as listed in Table 24 beside the radiolabelled compounds, read-out: kinact/Ki (human elastase)): 32000 M⁻¹ s⁻¹; Infected/blood ([6]; 4 hrs post injection): 0.61; Infected/normal ([6]; 4 hrs post injection): 1.5; Infected/blood ([6]; 24 hrs post injection): 0.75; Infected/normal ([6]; 24 hrs post injection): 1.9
2 | – | 0.1 % dose | 0.3 % dose | CCC1(CC)C(=O)N(C(=O)NCc2ccc(I)cc2)C1Oc1ccc(C(=O)N2CCN(C)CC2)cc1 (single isomer, unassigned) [Compound 4a] | some degree of selectivity for granulocytes | 68.6% | 14.3% | 8.4% | 53.2% | 14.6% | – | – | – | significantly better uptake in the infected region | 0.52 | 1.0 | 0.62 | 0.28 | 1.6 | 0.53 | kinact/Ki (human elastase) ([1]; as listed in Table 24 beside the radiolabelled compounds): 36000; Potency (M/sec), kinact/Ki ([1]; measured for non-radioactive iodine-labelled compounds and unlabelled chelate conjugates): 63,000
3 | 2700 M⁻¹ s⁻¹ | 0.3 % dose | 2.4 % dose | CCC1(CC)C(=O)N(C(=O)NCCc2ccc(O)c(I)c2)C1S(=O)(=O)CCOC (centres unmarked) [Compound 16, 4-[2-Methoxyethylsulfonyl]-1-[(4-hydroxy)(3-iodo)phenylethylaminocarbonyl]-3,3-diethyl-2-azetidinone] | some degree of selectivity for granulocytes | 0.55% | 0.0% | 0.6% | 0.3% | 0.6% | 0.2% | 0.2% | 0.6% | – | – | – | – | – | – | – | –
